Measured values reported in patent US6410735B1, “1-(4-arylpiperazin-1-y1)-ω-[N-(α,ω-dicarboximido)]-alkanes useful as uro-selective α1-adrenoceptor blockers” (Ranbaxy Laboratories Limited, priority 1997, dated 2002).

Tests used:
[1] = target: T1, α1A-adrenoceptor (prostate) (Rattus norvegicus, UniProt P43140); experiment: In vitro functional assay, phenylephrine-induced contraction of isolated prostate; format: cell-based; details: rat prostate, phenylephrine; read-out: In Vitro Functional Assay (pKB) α1A (converted)
T1 construct: Aorta, prostate and spleen tissues were isolated from urethane anaesthetized (1.5 gm/kg) male wistar rats; from tissue; host or cells: isolated prostate of male Wistar rats
T1 sequence (P43140 1-466): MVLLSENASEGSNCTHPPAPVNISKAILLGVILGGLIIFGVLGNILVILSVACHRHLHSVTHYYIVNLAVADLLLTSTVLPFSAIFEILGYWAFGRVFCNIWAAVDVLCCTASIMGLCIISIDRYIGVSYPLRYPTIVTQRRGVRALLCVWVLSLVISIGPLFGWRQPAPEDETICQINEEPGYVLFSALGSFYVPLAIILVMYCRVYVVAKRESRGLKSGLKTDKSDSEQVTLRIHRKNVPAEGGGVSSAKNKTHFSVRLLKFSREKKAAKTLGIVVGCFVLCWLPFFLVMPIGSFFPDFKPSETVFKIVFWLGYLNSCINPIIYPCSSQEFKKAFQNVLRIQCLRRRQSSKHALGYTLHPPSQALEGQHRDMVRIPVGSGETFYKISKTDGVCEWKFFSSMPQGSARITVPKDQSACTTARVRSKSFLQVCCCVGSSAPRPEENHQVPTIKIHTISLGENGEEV
Description: In order to study selectivity of action of the present compounds towards different α-adrenoceptor subtypes, the ability of these compounds to antagonize α1-adrenoceptor agonist induced contractile response of aorta (α1D), prostate (α1A) and spleen (α1B) was studied. Aorta, prostate and spleen tissues were isolated from urethane anaesthetized (1.5 gm/kg) male wistar rats. Isolated tissues were mounted in organ bath containing Krebs Henseleit buffer of the following composition (mM): NaCl 118; KCl 4.7; CaCl2 2.5; MgSO4·H2O 1.2; NaHCO3 25; KH2PO4 1.2; glucose 11.5. Buffer was maintained at 37° C. and aerated with a mixture of 95% O2 and 5% CO2. A resting tension of 2 g (aorta) or 1 g (spleen and prostate) was applied to tissues. Contractile response was monitored using a force displacement transducer and recorded on chart recorders. Tissues were allowed to equilibrate for 2 hours. At the end of equilibration period, concentration response curves to norepinephrine (aorta) and phenylephrine (spleen and prostate) were obtained in the absence and presence of the tested compound (at concentrations of 0.1, 1 and 10 μM). Antagonist affinity was calculated and expressed as PKB values in Table 1.

[2] = target: T2, 5-HT2A (Rattus norvegicus, UniProt P14842); experiment: Receptor selectivity, rat aorta; format: cell-based; details: read-out: pKB 5-HT2A (converted)
T2 construct: from tissue; host or cells: rat aorta
T2 sequence (P14842 whole entry): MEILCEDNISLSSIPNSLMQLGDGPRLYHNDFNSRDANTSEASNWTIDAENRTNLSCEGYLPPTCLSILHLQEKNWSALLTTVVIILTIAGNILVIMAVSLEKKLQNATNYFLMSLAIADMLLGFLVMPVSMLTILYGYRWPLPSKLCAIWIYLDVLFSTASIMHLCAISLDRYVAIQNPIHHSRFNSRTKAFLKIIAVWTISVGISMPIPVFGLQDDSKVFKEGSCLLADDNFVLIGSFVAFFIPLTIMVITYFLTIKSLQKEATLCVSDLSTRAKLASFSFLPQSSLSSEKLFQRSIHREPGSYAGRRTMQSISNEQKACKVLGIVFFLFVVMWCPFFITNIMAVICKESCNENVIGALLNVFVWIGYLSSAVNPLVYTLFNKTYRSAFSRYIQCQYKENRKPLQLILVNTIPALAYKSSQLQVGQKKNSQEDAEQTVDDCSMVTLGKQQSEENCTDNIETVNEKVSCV
Method: (§1) Selectivity of action of the present compounds was tested against a range of different receptors, e.g., β1- and α2-adrenergic, muscarinic cholinergic, serotoninergic (5-HT2A), histaminergic (H1), angiotensin II, endothelin (ETA and B,), as well as calcium and potassium channels. Rat aorta was used to study the effect of the compounds on 5-HT2A, ETA, calcium and potassium channels. Angiotensin II receptor antagonistic activity was studied in rabbit aorta. Muscarinic cholinergic receptor and ETB receptor antagonistic activity was studied in rat trachea, while guinea pig trachea was used to study H1 receptor antagonistic activity. Electrically stimulated rat vas deferens was used to investigate the effect of α2-adrenoceptors, while β1-adrenoceptor antagonistic activity was studied using electrically stimulated rat ventricular strips. Results of this selectivity study is shown in (Table 2).

[3] = system: anaesthetized dogs (intraurethral pressure); experiment: In vivo selectivity study, phenylephrine response on intraurethral (prostatic) pressure in anaesthetized dogs; set-up: species or system dog; details: Canis lupus familiaris, iv 0.01-0.3 mg/kg, against phenylephrine, read-out: pseudo pKB Intraurethral Pressure (converted)
Method: Male mongrel dogs (12-20 Kg) were anaesthetized with pentobarbitone sodium (35 mg/kg, iv). Trachea was intubated for artificial respiration. Femoral artery and femoral vein were cannulated for recording blood pressure and for administration of drug solutions, respectively. Blood pressure was recorded on a polygraph through a pressure transducer. A paramedian incision was made lateral to the penis and the bladder was exposed. Urine was drained through a cannula put directly into the bladder and it was guided into the urethra gently and was placed at the prostatic urethra. Balloon was inflated with 2 cc air and its placement was confirmed by digital pressure. Intraurethral pressure was recorded on the polygraph through a pressure transducer. Graded dose response relationship of phenylephrine (1-16 μg/kg, iv) was obtained on prostatic pressure and blood pressure, prior to administration of the compounds of the present invention. Compounds 2, 9, and 13 (at dosages of 0.01, 0.03, 0.1, and 0.3 mg/kg) were administered intravenously 10 min before obtaining phenylephrine dose response curves. Results were analyzed and pseudo PKB values were calculated as described in Kenny et al (1996).

[4] = target: T3, α1A-adrenoceptor (Rattus norvegicus, UniProt P43140); experiment: Receptor binding assay, [3H]prazosin, rat submaxillary membranes; details: rat submaxillary membranes, 0.5 nM [3H]prazosin; read-out: RBA (Ki nM) α1A
T3 construct: from tissue; host or cells: rat submaxillary gland membranes
T3 sequence (P43140 1-466): T1 sequence (P43140 1-466)
Method: (§2) Receptor binding assays, (RBA's) were performed for native α1-adrenoceptors. Rat submaxillary and rat liver membrane preparations were used to assess the affinity for α1A and α1B subtypes, respectively. Aliquots of membrane protein ([…]) were incubated in a final volume of […] assay buffer (50 mM Tris, 0.5 mM EDTA at pH 7.4) with 0.5 nM [^3H] prazosin for 60 mins at 28 ° C. Reaction was stopped by rapid filtration on Millipore filters. Filters were dried and bound radioactivity counted. Non-specific binding was determined in the presence of 0.3 mM prazosin.

[5] = target: T4, α1B-adrenoceptor (Rattus norvegicus, UniProt P15823); experiment: Receptor binding assay, [3H]prazosin, rat liver membranes; details: rat liver membranes, 0.5 nM [3H]prazosin; read-out: RBA (Ki nM) α1B
T4 construct: from tissue; host or cells: rat liver membranes
T4 sequence (P15823 1-515): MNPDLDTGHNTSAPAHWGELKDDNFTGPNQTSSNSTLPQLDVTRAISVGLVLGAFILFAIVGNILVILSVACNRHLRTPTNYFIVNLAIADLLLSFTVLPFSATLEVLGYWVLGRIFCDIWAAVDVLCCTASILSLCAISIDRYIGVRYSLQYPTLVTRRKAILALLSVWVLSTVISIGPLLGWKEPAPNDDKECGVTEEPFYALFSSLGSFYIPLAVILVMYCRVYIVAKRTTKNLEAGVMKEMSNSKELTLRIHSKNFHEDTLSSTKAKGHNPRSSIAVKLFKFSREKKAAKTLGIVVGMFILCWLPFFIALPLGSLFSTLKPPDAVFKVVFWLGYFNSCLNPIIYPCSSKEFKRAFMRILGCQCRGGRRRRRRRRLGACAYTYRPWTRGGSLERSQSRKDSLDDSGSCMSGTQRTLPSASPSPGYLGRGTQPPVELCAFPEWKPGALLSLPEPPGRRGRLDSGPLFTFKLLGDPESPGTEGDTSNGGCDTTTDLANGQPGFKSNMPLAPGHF
Method: as §2

[6] = target: T5, H1 receptor (Cavia porcellus, UniProt P31389); experiment: Receptor selectivity, guinea pig trachea; format: cell-based; details: read-out: pKB H1-Histaminergic (converted)
T5 construct: guinea pig trachea was used to study H1 receptor antagonistic activity; from tissue; host or cells: guinea pig trachea
T5 sequence (P31389 whole entry): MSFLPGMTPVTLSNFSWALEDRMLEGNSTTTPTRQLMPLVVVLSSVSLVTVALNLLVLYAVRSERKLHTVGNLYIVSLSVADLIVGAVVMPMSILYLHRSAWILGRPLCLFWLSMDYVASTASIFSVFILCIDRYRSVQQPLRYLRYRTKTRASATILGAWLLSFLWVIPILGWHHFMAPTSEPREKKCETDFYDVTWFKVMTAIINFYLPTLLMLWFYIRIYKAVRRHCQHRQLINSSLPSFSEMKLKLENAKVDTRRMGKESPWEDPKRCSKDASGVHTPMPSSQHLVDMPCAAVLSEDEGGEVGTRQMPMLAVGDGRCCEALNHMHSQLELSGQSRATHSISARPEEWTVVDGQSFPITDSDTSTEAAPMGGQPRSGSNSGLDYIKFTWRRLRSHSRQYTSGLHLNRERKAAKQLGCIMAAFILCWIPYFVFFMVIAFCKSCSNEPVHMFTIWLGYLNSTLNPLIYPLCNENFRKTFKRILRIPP
Method: as §1

Which results are given for `COc1ccccc1N1CCN(CCCN2C(=O)CCC2=O)CC1` [Compound 2, 1-[4-(2-Methoxyphenyl)piperazin-1-yl]3-(2,5-dioxopyrrolidin-1-yl)propane]?
Kb [1]: 0.002 µM; Kb [2]: 0.0251 µM; Kb [3]: 0.0251 µM; Ki [4]: 19 nM; Ki [5]: 244 nM; Kb [6]: 5.01 µM

What does the source list for `COc1ccccc1N1CCN(CCCCN2C(=O)CCC2=O)CC1` [Compound 9, 1-[4-(2-Methoxyphenyl)piperazin-1-yl]-4-(2,5-dioxopyrrolidin-1-yl)butane]?
Kb [1]: 0.001 µM; Kb [2]: 0.0126 µM; Kb [3]: 0.0126 µM; Ki [4]: 1 nM; Ki [5]: 35 nM; Kb [6]: 3.98 µM

For `COc1ccccc1N1CCN(CCCN2C(=O)CCCC2=O)CC1` [Compound 13, 1-[4-(2-Methoxyphenyl)piperazin-1-yl]-3-(2,6-dioxopiperidin-1-yl)propane], which Kb [1] is on record?
Its Kb is 0.00251 µM.

And the Kb [2]?
Its Kb is 0.01 µM.

What about the Kb [3] of the same molecule?
The Kb was 0.00794 µM.

And the Ki [4]?
Its Ki is 3 nM.

What about the Ki [5] of the same molecule?
Its Ki is 168 nM.

And the Kb [6]?
The Kb was 2 µM.
